# Measured values from US20040235163A1, “Myocardial cell apoptosis inhibitors” (priority 2001, published 2004).
# Legend:
# [1] = test system: neonatal rat ventricular myocytes (NRVMs); assay: H2O2-induced apoptosis in cultured cardiac myocytes, flow cytometry (Sub-G1 peak); format: cell-based
# [2] = test system: neonatal rat ventricular myocytes (NRVMs); assay: Calcium ionophore A23187-induced apoptosis in cultured cardiac myocytes, flow cytometry; format: cell-based
# Method: Cultured neonatal rat ventricular myocytes (NRVMs) were provided as cardiac myocytes used in the experiments. More specifically, hearts were extracted from 0- to 1-day-old neonatal rats (Wister, pregnant rats were purchased from Chubu Shizai). The ventricles of each heart were then treated with collagenase Type 2 (Worthington) and pancreatin (Sigma) to enzymatically isolate cardiac myocytes (collagenase 0.5 mg/ml, pancreatin 0.6 mg/ml, 4 treatments), followed by primary culture. After the enzymatically collected cells were seeded in plates and allowed to stand for 30 minutes, non-adhesive cells were collected to remove fibroblasts. The resulting cardiac myocytes were seeded at a density of 1×10^5 cells/cm^2 on 6-well plates or 75 cm^2 flasks pre-coated with 1% gelatin and then cultured at 37° C. under 5% CO2 for 48 hours in a medium consisting of DMEM/Medium 199 (4:1), 10% fetal bovine serum (FBS, Sigma), 0.1 mM bromodeoxyuridine (BrdU, Roche), penicillin (50 units/ml, GIBCO) and streptomycin (50 μg/ml, GIBCO). Culturing was carried out in a CO2 incubator under conditions of 37° C. The medium was then replaced with a serum-free medium which had been prepared from the same ingredients other than FBS and supplemented with insulin-transferrin-selenium (ITS, GIBCO). These cells were provided for experiments 24 hours after replacement with the serum-free medium. After immunocytostaining with a cardiac myocytespecific antibody (α-actinin antibody), the percentage of cardiac myocytes was measured by microscopy to confirm that 90% or more of the cells were cardiac myocytes at that stage.
# Flow cytometry analysis was performed using a Coulter EPICSXL and a software package specific for this purpose. After collection of floating cardiac myocytes from the cell culture (1×10^6 cells/well), adhered cardiac myocytes were trypsinated and collected in the same tube. […] Propidium iodide (250 μL, 25 μg/ml, Sigma) was added to and suspended well in the cell suspension, which was then allowed to stand at room temperature for 20 minutes or more and analyzed by flow cytometry. Cells showing a Sub-G1 peak in nuclear staining with propidium iodide were counted as apoptotic cells to calculate the percentage of cells showing a Sub-G1 peak relative to the total cell count measured (1×10^4 cells). The calculated percentage was defined as the percentage of apoptotic cells.
# (§1) Calcium ionophore A23187 (Sigma) was added at a final concentration of 5×10^−6 M to the cell culture of cardiac myocytes prepared as described in Example 1. The cells were cultured as described in Example 1 and analyzed to determine the percentage of apoptotic cells. […]
# [3] = test system: cardiac myocytes; assay: Apoptosis in cardiac myocytes measured as in Examples 1 and 2, modulators of the nicorandil effect; format: cell-based, rat
# Method: Flow cytometry analysis was performed using a Coulter EPICSXL and a software package specific for this purpose. After collection of floating cardiac myocytes from the cell culture (1×10^6 cells/well), adhered cardiac myocytes were trypsinated and collected in the same tube. After centrifugation, the pellet was washed with PBS, supplemented with 70% EtOH, and then allowed to stand at room temperature for 20 minutes or more to fix the cells. After fixation, the cells were washed with PBS, re-suspended in 1 ml PBS and then reacted with 50 μL RNase (1 mg/ml, Sigma) at 37° C. for 40 minutes. After the cells were allowed to stand at room temperature (if necessary), they were washed with PBS and suspended in about 250 μL PBS to prepare a cell suspension. Propidium iodide (250 μL, 25 μg/ml, Sigma) was added to and suspended well in the cell suspension, which was then allowed to stand at room temperature for 20 minutes or more and analyzed by flow cytometry. Cells showing a Sub-G1 peak in nuclear staining with propidium iodide were counted as apoptotic cells to calculate the percentage of cells showing a Sub-G1 peak relative to the total cell count measured (1×10^4 cells). The calculated percentage was defined as the percentage of apoptotic cells.
# H2O2 (Sigma) was added at a final concentration of 1×10^−4 M to the cell culture of cardiac myocytes prepared as described above (final density: 1×10^6 cells/2 ml/well), followed by culturing for 16 hours in a CO2 incubator. The cells were collected and analyzed by flow cytometory to determine the percentage of apoptotic cells. Nicorandil was also added at a final concentration of 1×10^−4 M immediately before H2O2 addition. […]
# as §1
# Apoptosis in cardiac myocytes was measured as described in Examples 1 and 2.
# [4] = test system: Neonatal rat cardiac myocytes; assay: JC-1 mitochondrial membrane potential, confocal microscopy, H2O2 stimulation; format: cell-based; conditions: pre-treatment with nicorandil 100 μmol/L; H2O2 200 μmol/L, 20 min
# Description: A fluorescent probe JC-1, a detection reagent for mitochondrial membrane potential, was used to confirm that nicorandil inhibited apoptosis in cardiac myocytes stimulated by H2O2. In most cases of cellular apoptosis, cytochrome C is translocated from mitochondrial membrane to cytosol, during which loss of mitochondrial membrane potential is known. Since JC-1 is a cationic fluorescent substance, it easily enters cells and emits red fluorescence (λem=590 nm) in normal cell mitochondria through formation of polymers called J-aggregates. […] Neonatal rat cardiac myocytes were seeded at a density of 1×10^6 cells/well in 35 mm dishes with glass bottoms (IWAKI) and cultured at 37° C. for 10 minutes in serum-free DMEM/F12 medium containing 10 μg/mL JC-1 (Wako Pure Chemical Industries, Ltd.). The cells on the dishes were observed using a confocal laser scanning microscope and a 20× objective lens. Fluorescence was excited by the 488 nm line of an argon laser and the 543 nm line of a helium-neon laser.
# [5] = test system: animal models of ischemic reperfusion; conditions: cited from earlier work
# [6] = test system: Bad protein (phospho-Bad Ser-136); assay: Western blot analysis of Bad phosphorylation in apoptotic cardiac myocytes; format: cell-based, rat; conditions: pre-treatment with nicorandil, apoptotic cells induced by H2O2 or A23187
# Method: Both floating and adhered cardiac myocytes were collected and lysed at 4° C. for 1 hour in a lysis buffer consisting of 20 mM Tris-HCl (pH 7.5), 2 mM EDTA, 3 mM EGTA, 2 mM DTT, 250 mM sucrose, 1% Triton X-100, 10 μg/ml aprotinin, 10 μM leupeptin and 0.1 mM PMSF. The resulting cell lysate was measured for its protein level by the Bradford method, solubilized in 2× sample buffer and then boiled at 95° C. for 3 minutes. After each lane was loaded with 50 μg sample and electrophoresed on a 12.5% SDS-polyacrylamide gel, the gel was transferred to a PVDF membrane. The blots were blocked overnight in 3% BSA/0.1% Tween-20 in PBS and then detected with the following primary antibodies: rabbit polyclonal Bcl-2 antibody (Pharmingen), rabbit polyclonal Bax antibody (Pharmingen), mouse monoclonal p53 antibody (Calbiochem), mouse monoclonal poly(ADP-ribose) polymerase (PARP) antibody (Clontech) and rabbit polyclonal CPP32 antibody (Santa Cruz). […]
# Both floating and adhered cardiac myocytes were collected from 75 cm^2 flasks and lysed in 0.5 mL lysis buffer consisting of 10 mM Tris-HCl (pH 7.4), 1 mM EDTA, 1 mM EGTA (pH 8.0), 150 mM NaCl, 1% Triton X-100, 0.2 mM sodium ortho-vanadate, 0.2 mM PMSF and 0.5% NP-40. […] The total Bad content was determined by probing with a rabbit polyclonal Bad antibody (New England Biolabs). […]
molecule,measurement,setting,value
"OO [H2O2, hydrogen peroxide]",percentage of apoptotic cells,"[1]; 1×10^−4 M H2O2, 16 hours, 10% or less in the absence of H2O2",more than 70%
CCCCCC(O)CCCC(=O)O (stereo not drawn) [5-hydroxydecanoate],effect on the anti-apoptotic effect of nicorandil (A23187-induced apoptosis),[2]; 5-hydroxydecanoate 5×10^−4 M + nicorandil 1×10^−4 M + A23187 5×10^−6 M,completely blocked
same,effect on the anti-apoptotic effect of nicorandil (H2O2-induced apoptosis),[1]; 5-hydroxydecanoate 5×10^−4 M + nicorandil 1×10^−4 M + H2O2 1×10^−4 M,partially blocked
COc1ccc2c(c[n+](C)c3c4cc5c(cc4ccc23)OCO5)c1OC [chelerythrine],effect on the anti-apoptotic effect of nicorandil,[3]; chelerythrine final concentration 10^−6 M,completely disappeared
ZVAD,block of the pro-apoptosis effect of A23187,"[2]; ZVAD 1×10^−5 M, A23187 5×10^−6 M",around 50%
"O=C(NCCO[N+](=O)[O-])c1cccnc1 [nicorandil, N-(2-hydroxyethyl)nicotinamide nitrate ester]",JC-1 green fluorescence (loss of mitochondrial membrane potential) upon H2O2 stimulation,[4],inhibit such green fluorescence
same,infarct size,[5],decrease infarct size
same,inhibition at 100 µM,"[2]; Rattus norvegicus, Ventricular myocyte, nicorandil 1×10^−4 M, A23187 5×10^−6 M, read-out: block / inhibition of apoptosis induced by calcium ionophore A23187",~50%
same,inhibition of H2O2-induced apoptosis,"[1]; 1×10^−4 M nicorandil added immediately before 1×10^−4 M H2O2, 16 hours",significantly inhibited to the control level
same,inhibition at 100 µM,"[1]; Rattus norvegicus, Ventricular myocyte, pre-treatment with nicorandil 10^−4 M, read-out: inhibition of NRVM apoptosis induced by H2O2",60%
same,phosphorylation level of Bad,[6],increase the phosphorylation level of Bad
CNc1ccc2oc(C[C@H]3O[C@@]4(CC[C@H]3C)O[C@H]([C@H](C)C(=O)c3ccc[nH]3)[C@H](C)C[C@H]4C)nc2c1C(=O)O [A23187],induction of apoptosis,[2]; A23187 5×10^−6 M,induced apoptosis significantly
COc1ccc(Cl)cc1C(=O)NCCc1ccc(S(=O)(=O)NC(=O)NC2CCCCC2)cc1 [glibenclamide],effect on the anti-apoptotic effect of nicorandil (H2O2-induced apoptosis),[1]; glibenclamide 1×10^−5 M + nicorandil + H2O2 1×10^−4 M,completely blocked
nitroprusside,effect on the anti-apoptotic effect of nicorandil,[3]; nitroprusside final concentration 10^−4 M,enhanced
"COC(=O)[C@@H](N)CCCNC(=N)N[N+](=O)[O-] [L-NAME, N^G-nitro L-arginine methyl ester]",effect on the anti-apoptotic effect of nicorandil,[3]; L-NAME final concentration 10^−6 M,partially blocked
